The record followed here is US10130633B2, “Compounds” (BAYER PHARMA AKTIENGESELLSCHAFT, priority 2013, dated 2018).

pIC50: −log10 of the molar value. “And” between values parts separate entries of the source, which are not always exact repeats. Equal values may be shown once. Read-outs that look alike come from different tables or passages of the source.

A short description of data set [1]: Solubility in buffer / aqueous media. The following applies: pH 6.5, aqueous buffer; buffer at pH6.5. Format: physicochemical. From the text:
Some of the compounds of general formula (I) show low solubility in aqueous media and organic solvents. This can affect the possibility to assess the activity of such compounds with the described assays. […] Therefore, the high IC50 value of the compound might be a result of the low solubility.

For data set [2], the system named is constitutive active colorectal cancer cell (CRC) Wnt pathway. Put plainly: HCT116 TOPFlash cellular reporter assay (Super TopFlash luciferase), constitutive active Wnt pathway. Format: cell-based. The settings on record: for pIC50: HCT116 TOP reporter cells, 36 hours incubation, luciferase expression. How it is done: In order to discover and characterize small molecules which inhibit the constitutive active colorectal cancer cell (CRC) Wnt pathway, a cellular reporter assay was employed. […] Stable transfectants were generated by cotransfection with pcDNA3 and selection of stable transfected cells with 1 mg/ml G418.
A general note: Reporter assays use an easily measured gene product as a stand-in for the process of interest.

The test system of data set [3] is wildtype Wnt pathway. Briefly: HEK293 TOP reporter assay, wildtype Wnt pathway stimulated with Wnt-3a. The settings on record: read-out: HEK TOP OncoFlash IC50. The data set is classed as cell-based, human. On the procedure: (§1) Measurement of luciferase expression was done as described for the constitutive active Wnt assay.
In order to discover and characterize small molecules which inhibit the wildtype Wnt pathway, a cellular reporter assay was employed. […] Stable transfectants were generated by selection with 300 μg/ml Hygromycin.

Data set [4] relates to HCT116 FOP control reporter cell line. Briefly: HCT116 FOPFlash control reporter assay (FOP control vector, non-functional TCF elements). Format: cell-based. The settings on record: HCT116 FOP control reporter cells, 36 hours incubation, luciferase expression. From the text: In a parallel approach, HCT116 cells were cotransfected with the FOP control vector and pcDNA3. The FOP vector is identical to the TOP construct, but it contains instead of functional TCF elements a randomized, non-functional sequence. For this transfection a stable transfected cell line was generated as well.

For data set [5], the system named is HEK293 FOP control reporter cell line. Briefly: HEK293 FOP control reporter assay. Format: cell-based, human. The following applies: read-out: HEK FOP IC50. On the procedure: as §1
In a parallel approach, HEK293 cells were cotransfected with the FOP control vector and pcDNA3. The FOP vector is identical to the TOP construct, but it contains instead of functional TCF elements a randomized, non-functional sequence. For this transfection a stable transfected cell line was generated as well, based on selection with Geneticin (1 mg/ml).

Broadly, the solubility is the concentration that dissolves in the medium under given conditions. A lower solubility goes with little dissolved substance. For `COc1ccc(C(=O)Nc2nnc(-c3ccccc3)s2)cc1NC(=O)CN1CCOCC1` [4-methoxy-3-[(morpholin-4-ylacetyl)amino]-N-(5-phenyl-1,3,4-thiadiazol-2-yl)benzamide], the solubility in data set [1] was < 0.1 µg/mL and < 0.22 µM. Moreover, in data set [2] (might be a result of the low solubility), the “IC50 value in the HCT116 TOPFlash assay (in words)” value is on record as “higher than expected”.

In general, pIC50 refers to the IC50 on a negative log10 scale, so that one unit is a factor of ten. With `COCc1ccc(C(=O)Nc2nnc(-c3ccccc3)s2)cc1NC(=O)CN1CCN(C)CC1` [Example 46, 4-(methoxymethyl)-3-{[(4-methylpiperazin-1-yl)acetyl]amino}-N-(5-phenyl-1,3,4-thiadiazol-2-yl)benzamide], the pIC50 in data set [3] (Homo sapiens, HEK293, 16 h) was 6.16; in data set [4] (Homo sapiens, HCT-116, 36 h), at most 4.30; in data set [5] (Homo sapiens, HEK293, 16 h) it was at most 4.30; in data set [2] (Homo sapiens, HCT-116, 36 h), 6.79.

On to `CS(=O)(=O)Cc1ccc(C(=O)Nc2nnc(-c3ccccc3)s2)cc1NC(=O)C1(N2CCOCC2)CC1` [Example 47, 4-[(methylsulfonyl)methyl]-3-({[1-(morpholin-4-yl)cyclopropyl]carbonyl}amino)-N-(5-phenyl-1,3,4-thiadiazol-2-yl)benzamide], for which the negative logarithm of the IC50 (pIC50) is 7.05 in data set [3] (Homo sapiens, HEK293, 16 h); at most 4.30 in data set [4] (Homo sapiens, HCT-116, 36 h); at most 4.30 in data set [5] (Homo sapiens, HEK293, 16 h); 7.40 in data set [2] (Homo sapiens, HCT-116, 36 h).

In the case of `CS(=O)(=O)Cc1ccc(C(=O)Nc2nnc(-c3ccccc3)s2)cc1NC(=O)C1(N2CCN(C3CC3)CC2)CC1` [Example 48, 3-({[1-(4-cyclopropylpiperazin-1-yl)cyclopropyl]carbonyl}amino)-4-[(methylsulfonyl)methyl]-N-(5-phenyl-1,3,4-thiadiazol-2-yl)benzamide], the negative-log IC50 (pIC50) in data set [3] (Homo sapiens, HEK293, 16 h) is 6.89; in data set [4] (Homo sapiens, HCT-116, 36 h), at most 4.30; in data set [5] (Homo sapiens, HEK293, 16 h) it was at most 4.30; in data set [2] (Homo sapiens, HCT-116, 36 h), 7.13.

As for `CN1CCN(CC(=O)Nc2cc(C(=O)Nc3nnc(-c4ccccc4)s3)ccc2OC(F)(F)F)CC1` [Example 54, 3-{[(4-methylpiperazin-1-yl)acetyl]amino}-N-(5-phenyl-1,3,4-thiadiazol-2-yl)-4-(trifluoromethoxy)benzamide], the pIC50 in data set [3] (Homo sapiens, HEK293, 16 h) was 6.89; in data set [4] (Homo sapiens, HCT-116, 36 h), 4.55; in data set [5] (Homo sapiens, HEK293, 16 h), at most 4.30; in data set [2] (Homo sapiens, HCT-116, 36 h), 6.98.

Take `NC(=O)c1ccc(C(=O)Nc2nnc(-c3ccccc3)s2)cc1NC(=O)C1(N2CCOCC2)CC1` [Example 56, 2-({[1-(morpholin-4-yl)cyclopropyl]carbonyl}amino)-N-4-(5-phenyl-1,3,4-thiadiazol-2-yl)terephthalamide]: the pIC50 in data set [3] (Homo sapiens, HEK293, 16 h) is 6.72; in data set [4] (Homo sapiens, HCT-116, 36 h), at most 4.30; in data set [5] (Homo sapiens, HEK293, 16 h) it was at most 4.30; in data set [2] (Homo sapiens, HCT-116, 36 h), 6.98.

Turning to `COc1ccc(NC(=O)c2ccc(-c3ccccc3F)nc2)cc1NC(=O)C1(N2CCOCC2)CC1` [Example 62, 6-(2-fluorophenyl)-N-[4-methoxy-3-({[1-(morpholin-4-yl)cyclopropyl]carbonyl}amino)phenyl]nicotinamide], the negative logarithm of the IC50 (pIC50) was 6.74 in data set [3] (Homo sapiens, HEK293, 16 h); at most 4.30 in data set [4] (Homo sapiens, HCT-116, 36 h); at most 4.30 in data set [5] (Homo sapiens, HEK293, 16 h); 7.17 in data set [2] (Homo sapiens, HCT-116, 36 h).

For `COc1ccc(C(=O)Nc2ccc(-c3ccccc3F)nc2)cc1NC(=O)C1(N2CCOCC2)CC1` [Example 80, N-[6-(2-fluorophenyl)pyridin-3-yl]-4-methoxy-3-({[1-(morpholin-4-yl)cyclopropyl]carbonyl}amino)benzamide], the negative logarithm of the IC50 (pIC50) in data set [3] (Homo sapiens, HEK293, 16 h) is 6.82; in data set [4] (Homo sapiens, HCT-116, 36 h), at most 4.30; in data set [5] (Homo sapiens, HEK293, 16 h) it was 5.00; in data set [2] (Homo sapiens, HCT-116, 36 h), 7.57.

Turning to `COc1ccc(C(=O)Nc2ccc(-c3ccccc3)nc2)cc1NC(=O)C1(N2CCOCC2)CC1` [Example 81, 4-methoxy-3-({[1-(morpholin-4-yl)cyclopropyl]carbonyl}amino)-N-(6-phenylpyridin-3-yl)benzamide], the pIC50 in data set [3] (Homo sapiens, HEK293, 16 h) was 7.82; in data set [4] (Homo sapiens, HCT-116, 36 h), at most 4.30; in data set [5] (Homo sapiens, HEK293, 16 h) it was at most 4.30; in data set [2] (Homo sapiens, HCT-116, 36 h), 7.64.

As to `COC(=O)c1ccc(C(=O)Nc2nnc(-c3ccccc3)s2)cc1NC(=O)CN1CCN(C)CC1` [Example 105, methyl 2-{[(4-methylpiperazin-1-yl)acetyl]amino}-4-[(5-phenyl-1,3,4-thiadiazol-2-yl)carbamoyl]benzoate], the pIC50 in data set [3] (Homo sapiens, HEK293, 16 h) was 6.52; in data set [4] (Homo sapiens, HCT-116, 36 h) it was at most 4.30; in data set [5] (Homo sapiens, HEK293, 16 h), at most 4.30; in data set [2] (Homo sapiens, HCT-116, 36 h) it was 7.19.

In the case of `Nc1ccc(-c2ccc(NC(=O)c3ccc(OC(F)(F)F)c(NC(=O)CN4CCOCC4)c3)cn2)cc1` [Example 126, N-[6-(4-aminophenyl)pyridin-3-yl]-3-[(morpholin-4-ylacetyl)amino]-4-(trifluoromethoxy)benzamide], the pIC50 in data set [3] (Homo sapiens, HEK293, 16 h) was 7.44; in data set [4] (Homo sapiens, HCT-116, 36 h), at most 4.30; in data set [5] (Homo sapiens, HEK293, 16 h), at most 4.30; in data set [2] (Homo sapiens, HCT-116, 36 h), 7.28.

Regarding `CN1CCN(CC(=O)Nc2cc(C(=O)Nc3ccc(-c4ccccc4)cn3)ccc2OC(F)(F)F)CC1` [Example 132, 3-{[(4-methylpiperazin-1-yl)acetyl]amino}-N-(5-phenylpyridin-2-yl)-4-(trifluoromethoxy)benzamide formiate], the pIC50 in data set [3] (HEK293 TOP cells, EC50 concentration of recombinant Wnt-3a, 16 hours) was 7.15; in data set [4], 4.70; in data set [5] (HEK293 FOP control cells, EC50 concentration of recombinant Wnt-3a, 16 hours) it was 4.96; in data set [2] it was 7.45.

Regarding `O=C(CN1CCOCC1)Nc1cc(C(=O)Nc2ccc(-c3ccccc3F)nc2)ccc1OC1CC1` [Example 133, 4-(cyclopropyloxy)-N-[6-(2-fluorophenyl)pyridin-3-yl]-3-[(morpholin-4-ylacetyl)amino]benzamide], the negative-log IC50 (pIC50) in data set [3] (Homo sapiens, HEK293, 16 h) was 6.89; in data set [4] (Homo sapiens, HCT-116, 36 h) it was at most 4.30; in data set [5] (Homo sapiens, HEK293, 16 h) it was at most 4.30; in data set [2] (Homo sapiens, HCT-116, 36 h), 7.26.

Consider `O=C(Nc1ccc(-c2ccccc2F)nc1)c1ccc(OC2CC2)c(NC(=O)C2(N3CCOCC3)CC2)c1` [Example 134, 4-(cyclopropyloxy)-N-[6-(2-fluorophenyl)pyridin-3-yl]-3-({[1-(morpholin-4-yl)cyclopropyl]carbonyl}amino)benzamide], for which the pIC50 was 7.51 in data set [3] (Homo sapiens, HEK293, 16 h); 5.28 in data set [4] (Homo sapiens, HCT-116, 36 h); 4.92 in data set [5] (Homo sapiens, HEK293, 16 h); 7.78 in data set [2] (Homo sapiens, HCT-116, 36 h).

As to `O=C(Nc1nnc(-c2ccccc2)s1)c1ccc(OC2CC2)c(NC(=O)C2(N3CCOCC3)CC2)c1` [Example 159, 4-(cyclopropyloxy)-3-({[1-(morpholin-4-yl)cyclopropyl]carbonyl}amino)-N-(5-phenyl-1,3,4-thiadiazol-2-yl)benzamide], the pIC50 in data set [3] (Homo sapiens, HEK293, 16 h) is 7.27; in data set [4] (Homo sapiens, HCT-116, 36 h), at most 4.30; in data set [5] (Homo sapiens, HEK293, 16 h) it was at most 4.30; in data set [2] (Homo sapiens, HCT-116, 36 h), 7.38.
